Assay results taken from ChEMBL document CHEMBL1909046, “DrugMatrix in vitro pharmacology data”.

Columns and labels:
Thromboxane-A synthase = target: T1, Thromboxane-A synthase (Homo sapiens, UniProt P24557); experiment: biochemical; assay type: tissue-based, Platelet;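 further: enzyme inhibition assay with PGH2 supplied as substrate; in other assays of this panel Not Active means under 50% inhibition at 10 µM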
T1 sequence (P24557 whole entry): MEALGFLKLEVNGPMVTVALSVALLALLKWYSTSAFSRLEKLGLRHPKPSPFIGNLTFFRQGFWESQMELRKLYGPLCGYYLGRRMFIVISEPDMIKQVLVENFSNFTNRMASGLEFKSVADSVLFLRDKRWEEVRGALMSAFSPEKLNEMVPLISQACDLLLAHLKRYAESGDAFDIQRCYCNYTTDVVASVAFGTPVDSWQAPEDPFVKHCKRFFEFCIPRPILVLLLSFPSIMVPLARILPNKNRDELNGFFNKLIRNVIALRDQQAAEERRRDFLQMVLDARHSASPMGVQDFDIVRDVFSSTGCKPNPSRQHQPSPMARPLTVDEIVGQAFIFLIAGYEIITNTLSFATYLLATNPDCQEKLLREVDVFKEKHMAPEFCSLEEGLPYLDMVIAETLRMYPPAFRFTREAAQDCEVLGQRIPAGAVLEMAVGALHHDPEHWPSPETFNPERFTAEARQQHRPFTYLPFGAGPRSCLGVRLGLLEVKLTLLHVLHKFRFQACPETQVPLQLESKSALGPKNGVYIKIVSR

Carbonic anhydrase 2 = Carbonic anhydrase 2 (Homo sapiens, UniProt P00918); experiment: DRUGMATRIX: Carbonic Anhydrase II enzyme inhibition (substrate: 4-Nitrophenyl acetate (4-NPA)); assay type: tissue-based, Erythrocyte; settings: erythrocyte; Not Active = under 50% inhibition at 10 µM
[1] = target: T2, C-X-C chemokine receptor type 2 (Homo sapiens, UniProt P25025); assay type: cell membranes, Membrane; settings: cho-k1; further: in other assays of this panel Not Active means under 50% inhibition at 10 µM
T2 sequence (P25025 whole entry): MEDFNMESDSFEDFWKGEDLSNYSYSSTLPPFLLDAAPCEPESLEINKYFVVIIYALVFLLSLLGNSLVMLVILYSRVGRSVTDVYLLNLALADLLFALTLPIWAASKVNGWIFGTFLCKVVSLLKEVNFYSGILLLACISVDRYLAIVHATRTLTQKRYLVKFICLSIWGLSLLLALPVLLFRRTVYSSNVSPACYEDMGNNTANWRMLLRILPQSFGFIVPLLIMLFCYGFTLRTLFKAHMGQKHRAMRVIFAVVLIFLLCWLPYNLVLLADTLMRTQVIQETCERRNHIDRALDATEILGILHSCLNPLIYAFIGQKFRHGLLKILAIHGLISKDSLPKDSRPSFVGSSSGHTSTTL

Melanocortin receptor 3 = Melanocortin receptor 3 (Homo sapiens, UniProt P41968); assay type: cell membranes, Membrane; settings: hek293; further: in other assays of this panel Not Active means under 50% inhibition at 10 µM
[2] = target: cGMP-specific 3',5'-cyclic phosphodiesterase (Homo sapiens, UniProt O76074); experiment: DRUGMATRIX: Phosphodiesterase PDE5 enzyme inhibition (substrate: [3H]cGMP + cGMP); assay type: tissue-based, Platelet; settings: platelet; Not Active = under 50% inhibition at 10 µM
Progesterone receptor = target: T3, Progesterone receptor (Bos taurus, UniProt Q690N0); experiment: DRUGMATRIX: Progesterone radioligand binding (ligand: [3H] R-5020); assay type: tissue-based, Uterus; settings: Not Active = under 50% inhibition at 10 µM
T3 sequence (Q690N0 whole entry): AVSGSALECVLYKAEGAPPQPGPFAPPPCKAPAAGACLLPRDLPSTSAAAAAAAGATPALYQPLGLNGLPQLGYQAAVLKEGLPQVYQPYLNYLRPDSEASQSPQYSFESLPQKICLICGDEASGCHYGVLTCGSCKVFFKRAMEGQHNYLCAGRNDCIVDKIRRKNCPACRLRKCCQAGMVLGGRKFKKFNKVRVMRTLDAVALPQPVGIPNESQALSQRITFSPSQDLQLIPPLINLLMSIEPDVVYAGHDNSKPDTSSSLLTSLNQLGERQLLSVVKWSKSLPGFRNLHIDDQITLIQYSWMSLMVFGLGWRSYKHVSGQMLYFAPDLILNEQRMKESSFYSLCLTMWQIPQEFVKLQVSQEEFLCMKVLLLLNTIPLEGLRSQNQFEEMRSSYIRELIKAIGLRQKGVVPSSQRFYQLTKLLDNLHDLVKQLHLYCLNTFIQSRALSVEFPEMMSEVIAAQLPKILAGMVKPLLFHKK

Cytochrome P450 1A2 = target: T4, Cytochrome P450 1A2 (Homo sapiens, UniProt P05177); settings: bti-tn-5b1-4; further: in other assays of this panel Not Active means under 50% inhibition at 10 µM
T4 sequence (P05177 whole entry): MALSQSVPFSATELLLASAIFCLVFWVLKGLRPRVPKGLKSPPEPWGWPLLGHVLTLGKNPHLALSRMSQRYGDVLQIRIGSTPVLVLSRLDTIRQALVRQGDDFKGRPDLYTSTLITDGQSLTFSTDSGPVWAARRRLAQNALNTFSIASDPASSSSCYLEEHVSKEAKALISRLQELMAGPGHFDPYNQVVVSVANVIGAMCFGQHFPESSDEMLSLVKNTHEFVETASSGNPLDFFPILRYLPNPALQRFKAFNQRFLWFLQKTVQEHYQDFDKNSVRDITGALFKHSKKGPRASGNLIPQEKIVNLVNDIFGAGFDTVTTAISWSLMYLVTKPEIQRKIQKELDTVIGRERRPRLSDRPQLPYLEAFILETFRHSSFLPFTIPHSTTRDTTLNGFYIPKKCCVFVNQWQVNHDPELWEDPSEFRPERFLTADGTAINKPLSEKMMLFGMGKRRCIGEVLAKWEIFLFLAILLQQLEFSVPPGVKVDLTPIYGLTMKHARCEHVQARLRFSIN

Sequence of Melanocortin receptor 3 (P41968 whole entry): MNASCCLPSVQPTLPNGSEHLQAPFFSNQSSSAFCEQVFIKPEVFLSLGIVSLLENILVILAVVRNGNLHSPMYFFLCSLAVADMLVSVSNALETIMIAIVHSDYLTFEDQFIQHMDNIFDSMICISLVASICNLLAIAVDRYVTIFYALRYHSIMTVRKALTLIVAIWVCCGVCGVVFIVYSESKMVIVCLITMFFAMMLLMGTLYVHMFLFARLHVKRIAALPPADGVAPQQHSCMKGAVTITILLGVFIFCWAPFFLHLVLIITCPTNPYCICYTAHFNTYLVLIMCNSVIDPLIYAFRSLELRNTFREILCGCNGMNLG

SMILES	IC50 (Thromboxane-A synthase; platelet)	IC50 (Carbonic anhydrase 2)	IC50 [1]	IC50 (Melanocortin receptor 3)	IC50 [2]	IC50 (Progesterone receptor)	IC50 (Cytochrome P450 1A2)	Ki (Cytochrome P450 1A2)	IC50 (Thromboxane-A synthase; read-out: IC50) [nM]	IC50 (Progesterone receptor; read-out: IC50) [nM]	Ki (Progesterone receptor; read-out: Ki) [nM]
CN1CCN(c2c(F)cc3c(=O)c(C(=O)O)cn(CCF)c3c2F)CC1 [FLEROXACIN]	Not Active	Not Active	Not Active	Not Active	Not Active	Not Active	Not Active	Not Active	–	–	–
O=c1[nH]c(=O)n([C@H]2C[C@H](O)[C@@H](CO)O2)cc1F [FLOXURIDINE]	Not Active	Not Active	Not Active	Not Active	Not Active	Not Active	Not Active	Not Active	–	–	–
COC(=O)Nc1nc2cc(C(=O)c3ccc(F)cc3)ccc2[nH]1 [FLUBENDAZOLE]	Not Active	Not Active	Not Active	Not Active	Not Active	Not Active	Not Active	Not Active	–	–	–
CC(=O)OCC(=O)[C@@]1(O)CC[C@H]2[C@@H]3CCC4=CC(=O)CC[C@]4(C)[C@@]3(F)[C@@H](O)C[C@@]21C [FLUDROCORTISONE ACETATE]	Not Active	Not Active	Not Active	Not Active	Not Active	Not Active	Not Active	Not Active	–	–	–
CCOC(=O)c1ncn2c1CN(C)C(=O)c1cc(F)ccc1-2 [FLUMAZENIL]	Not Active	Not Active	Not Active	Not Active	Not Active	Not Active	Not Active	Not Active	–	–	–
O=C(O)P(=O)(O)O [FOSCARNET]	Not Active	Not Active	Not Active	Not Active	Not Active	Not Active	Not Active	Not Active	–	–	–
Cc1ccc(C)c(OCCCC(C)(C)C(=O)O)c1 [GEMFIBROZIL]	Not Active	Not Active	Not Active	Not Active	Not Active	Not Active	Not Active	Not Active	–	–	–
O=c1c(-c2ccc(O)cc2)coc2cc(O)cc(O)c12 [GENISTEIN]	–	Not Active	Not Active	Not Active	Not Active	Not Active	Not Active	Not Active	7720	–	–
CCC1=C(C)CN(C(=O)NCCc2ccc(S(=O)(=O)NC(=O)N[C@H]3CC[C@H](C)CC3)cc2)C1=O [GLIMEPIRIDE]	Not Active	Not Active	Not Active	Not Active	Not Active	Not Active	Not Active	Not Active	–	–	–
Nc1cc(-c2ccncc2)c[nH]c1=O [INAMRINONE]	Not Active	Not Active	Not Active	Not Active	Not Active	Not Active	Not Active	Not Active	–	–	–
CCCCC1=NC2(CCCC2)C(=O)N1Cc1ccc(-c2ccccc2-c2nnn[nH]2)cc1 [IRBESARTAN]	Not Active	Not Active	Not Active	Not Active	Not Active	Not Active	Not Active	Not Active	–	–	–
CN1CCC(=C2c3ccccc3CC(=O)c3sccc32)CC1 [KETOTIFEN]	Not Active	Not Active	Not Active	Not Active	Not Active	Not Active	Not Active	Not Active	–	–	–
C[N+](C)(C)C[C@H](O)CC(=O)[O-] [LEVOCARNITINE]	Not Active	Not Active	Not Active	Not Active	Not Active	Not Active	Not Active	Not Active	–	–	–
C[C@H]1COc2c(N3CCN(C)CC3)c(F)cc3c(=O)c(C(=O)O)cn1c23.C[C@H]1COc2c(N3CCN(C)CC3)c(F)cc3c(=O)c(C(=O)O)cn1c23.O [LEVOFLOXACIN]	Not Active	Not Active	Not Active	Not Active	Not Active	Not Active	Not Active	Not Active	–	–	–
CCn1cc(C(=O)O)c(=O)c2cc(F)c(N3CCNC(C)C3)c(F)c21 (stereo not given) [LOMEFLOXACIN]	Not Active	Not Active	Not Active	Not Active	Not Active	Not Active	Not Active	Not Active	–	–	–
CN1CCCC(CN2c3ccccc3Sc3ccccc32)C1 (stereo not given) [MEPAZINE]	Not Active	Not Active	Not Active	Not Active	Not Active	Not Active	Not Active	Not Active	–	–	–
Cc1cccc(C)c1NC(=O)C1CCCCN1C (stereo not given) [MEPIVACAINE]	Not Active	Not Active	Not Active	Not Active	Not Active	Not Active	Not Active	Not Active	–	–	–
C[C@]12CC[C@H]3[C@@H](CCC4=CC(=O)CC[C@@H]43)[C@@H]1CC[C@@H]2O [NANDROLONE]	Not Active	Not Active	Not Active	Not Active	Not Active	–	Not Active	Not Active	–	172	22.4
CN(C)C(=O)Oc1cccc([N+](C)(C)C)c1.[Br-] [NEOSTIGMINE BROMIDE]	Not Active	Not Active	Not Active	Not Active	Not Active	Not Active	Not Active	Not Active	–	–	–
NC(=O)c1cccnc1 [NIACINAMIDE]	Not Active	Not Active	Not Active	Not Active	Not Active	Not Active	Not Active	Not Active	–	–	–
CS(=O)(=O)Nc1ccc([N+](=O)[O-])cc1Oc1ccccc1 [NIMESULIDE]	Not Active	Not Active	Not Active	Not Active	Not Active	Not Active	Not Active	Not Active	–	–	–
CN1C(=O)CN=C(c2ccccc2)c2cc([N+](=O)[O-])ccc21 [NIMETAZEPAM]	Not Active	Not Active	Not Active	Not Active	Not Active	Not Active	Not Active	Not Active	–	–	–
COc1ccc2c(c1OC)C(=O)O[C@@H]2[C@H]1c2c(cc3c(c2OC)OCO3)CCN1C [NOSCAPINE]	Not Active	Not Active	Not Active	Not Active	Not Active	Not Active	Not Active	Not Active	–	–	–
